# Test results taken from patent US8846695B2, “Treatment for diabetes in patients with inadequate glycemic control despite metformin therapy comprising a DPP-IV inhibitor” (Boehringer Ingelheim International GmbH, priority 2009, dated 2014).
# Assays:
# [1] = human, in vivo
# [2] = Thorough QT study, single dose, healthy female and male subjects (QTcI); type: in vivo, human; settings: therapeutic (5 mg) and supratherapeutic (100 mg)
# Experimental: A thorough QT study of BI 1356, a potent and selective dipeptidyl peptidase-4 inhibitor, was performed in healthy female and male subjects, using 5 mg (therapeutic dose) and 100 mg. The study was a randomised, single-dose, placebo-controlled, double-blind, four-way crossover study with open-label moxifloxacin (400 mg) as positive control. Triplicate 12-lead electrocardiograms (ECGs) of 10 seconds' duration were recorded for all subjects pre-dose and at various time points over a 24-h period after each treatment. The primary parameter was the subject-specific heart rate corrected QT interval (QTcI).
# [3] = 12-week randomized double-blind add-on to metformin study: HbA1c and FPG; set-up: placebo corrected mean reduction in HbA1c: dose or concentration left out as unconfirmed
# Experimental: Effects were compared to add-on of placebo (PBO) or of open label glimepiride (GLIM; 1 to 3 mg qd) in a 12-week randomized, double-blind study.
# The primary endpoint was change from baseline in HbA1c, adjusted for prior antidiabetic medication.
# [4] = Adverse events and hypoglycaemia in the 12-week add-on to metformin study; type: in vivo, human; settings: 1, 5 or 10 mg qd with metformin, 12 weeks
# Text: In total, 106 patients (43.1%) experienced adverse events (AEs) with similar incidences across all treatments. Most frequently reported episodes were nasopharyngitis (7.5%), diarrhoea (3.3%), and nausea (3.0%). […] Ten patients (3.7%) experienced serious AEs but none of these events were considered drug-related.
# The addition of BI 1356 to MET in patients with T2DM inadequately controlled on MET alone achieved clinically relevant and statistically significant reductions in HbA1c.
# [5] = 5 mg daily, 12 weeks, add-on to metformin
SMILES,form and path of excretion [1],prolongation of the QT interval [2],"percentage of patients achieving HbA1c lowering of ≧0.5% from baseline [3, 5] [%]","percentage of patients achieving HbA1c lowering of ≧1.0% from baseline [3, 5] [%]","percentage of patients achieving a HbA1c value [3, 5] [%]","time at which maximum glucose-lowering effects are reached ([3]; 1, 5 and 10 mg once daily added to metformin, plateau thereafter) [weeks]",drug-related hypoglycaemia [4],"placebo corrected mean reduction in HbA1c ([3]; Week 12, add-on to metformin, n=64) [%]"
CC#CCn1c(N2CCC[C@@H](N)C2)nc2c1c(=O)n(Cc1nc(C)c3ccccc3n1)c(=O)n2C [BI 1356],primarily excreted unchanged via the bile,did not prolong the QT interval,53.2,27.4,14.5,8,no case of hypoglycaemia was reported,–
"CCC1=C(C)CN(C(=O)NCCc2ccc(S(=O)(=O)NC(=O)N[C@H]3CC[C@H](C)CC3)cc2)C1=O [GLIM, glimepiride, reference compound]",–,–,–,–,–,–,–,−0.90
